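48-hour exposure; five concentrations; linearly interpolated endpoints. Abbreviation: GI50, concentration required for 50% inhibition of growth.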 The source made the active and inactive calls. Cut-off read from the data, not from the text of the source: active = GI50 up to about 1.1 µM and inactive = higher.

The values below come from ChEMBL document CHEMBL1201862, “PubChem BioAssay data set” (2004).

Test systems include COLO 205; HCC 2998; HCT-15; HOP-92; K562; M14; MOLT-4; Malme-3M; NCI-H226; NCI-H460; OVCAR-3; RXF 393; SF-268; SF-539; SK-MEL-2; SK-OV-3; SR; SW-620; TK-10; HL-60.
What all share (assay): growth of human tumour cells (NCI), 48 h

Regarding `CC1NC(=O)C2=C1C(N)=NC(=O)C2` (configuration not stated), the GI50 in the assay with COLO 205 was > 100 µM (inactive); with HCC 2998 it was > 100 µM (inactive); in the assay with HCT-15, above 100 µM; in the assay on HOP-92 it was > 100 µM (inactive); in the assay on K562, > 100 µM (inactive); in the assay with M14 it was > 100 µM (inactive). For the same compound, the GI50 in the assay on MOLT-4, with Malme-3M, in the assay with NCI-H226, with NCI-H460, in the assay on OVCAR-3 and with RXF 393 was > 100 µM (inactive) in each case. For the same compound, the GI50 in the assay with SF-268, in the assay with SF-539, with SK-MEL-2, with SK-OV-3, in the assay with SR and in the assay with SW-620 was > 100 µM (inactive) throughout. Further, the GI50 in the assay on TK-10 was > 100 µM (inactive).

For the compound `CCOC(=O)/C=C1\Oc2ccccc2C1(C)O` (configuration not stated), the GI50 in the assay with COLO 205 was > 100 µM (inactive); with HCC 2998, > 100 µM (inactive); in the assay on HCT-15, above 100 µM; in the assay on HL-60, > 100 µM (inactive); in the assay on HOP-92, > 100 µM (inactive); in the assay on K562, > 100 µM (inactive). Also, the GI50 in the assay with M14, with MOLT-4, in the assay on Malme-3M, with NCI-H226, with NCI-H460 and in the assay with OVCAR-3 was > 100 µM (inactive) in each case. Further, the GI50 in the assay with RXF 393, in the assay on SF-268, in the assay with SK-MEL-2, in the assay with SK-OV-3, in the assay on SR and with SW-620 was > 100 µM (inactive) in each case. In addition, the GI50 with TK-10 was > 100 µM (inactive).

On to `COc1cccc(CCn2c(N)c(C#N)c3ccc([N+](=O)[O-])cc3c2=O)c1`, for which the GI50 with COLO 205 is > 100 µM (inactive); with HCC 2998, > 46.5 µM (inactive); in the assay with HCT-15, above 31.6 µM; with HL-60, 3.78 µM (inactive); in the assay on HOP-92 it was > 31.6 µM (inactive); in the assay on K562, 0.283 µM (active). The GI50 with M14 was > 31.6 µM (inactive); with MOLT-4, > 31.6 µM (inactive); in the assay on NCI-H226 it was > 31.6 µM (inactive); in the assay on NCI-H460 it was > 46.5 µM (inactive); in the assay on OVCAR-3, > 31.6 µM (inactive); in the assay on SF-268, > 46.5 µM (inactive). The GI50 with SF-539 is > 10 µM (inactive); in the assay with SK-MEL-2, > 46.5 µM (inactive); in the assay on SK-OV-3, > 31.6 µM (inactive); with SR, 0.073 µM (active); with SW-620, > 100 µM (inactive); in the assay with TK-10, > 46.5 µM (inactive).

On to `CC(C)c1nccn1Cc1ccc(Cl)cc1Cl`, for which the GI50 is 29.2 µM (inactive) with COLO 205; 23.4 µM (inactive) in the assay on HCC 2998; 42.4 µM in the assay on HCT-15; 37.8 µM (inactive) in the assay with HOP-92; 79.1 µM (inactive) in the assay with K562; 38.1 µM (inactive) in the assay on M14. The GI50 is 41.2 µM (inactive) with Malme-3M; 22.4 µM (inactive) in the assay on NCI-H226; 34 µM (inactive) with NCI-H460; 27.2 µM (inactive) in the assay with OVCAR-3; 76.9 µM (inactive) in the assay on SF-268; 61.2 µM (inactive) in the assay on SF-539. In addition, the GI50 in the assay with SK-MEL-2 was 74.3 µM (inactive); with SK-OV-3 it was 47.9 µM (inactive); with SR, 44.4 µM (inactive); in the assay with SW-620, 49.1 µM (inactive); in the assay with TK-10, 37.6 µM (inactive).

For `CCCCCC[N+](C)(C)Cc1ccc(C[N+](C)(C)CCCCCC)cc1`, the GI50 was 1.82 µM (inactive) in the assay on COLO 205; 3.84 µM (inactive) in the assay on HCC 2998; 4 µM with HCT-15; 4.33 µM (inactive) in the assay with HL-60; 2.97 µM (inactive) in the assay with HOP-92; 1.61 µM (inactive) in the assay on K562. The GI50 was 3.48 µM (inactive) in the assay on M14; 1.54 µM (inactive) with MOLT-4; 7.76 µM (inactive) in the assay with Malme-3M; 3.51 µM (inactive) in the assay on NCI-H226; 2.64 µM (inactive) in the assay on NCI-H460; 3.78 µM (inactive) in the assay on OVCAR-3. The GI50 was 0.984 µM (active) with RXF 393; 2.79 µM (inactive) with SF-268; 2.14 µM (inactive) in the assay with SK-MEL-2; 9.66 µM (inactive) in the assay with SK-OV-3; 2.19 µM (inactive) in the assay on SR; 4.84 µM (inactive) in the assay on SW-620. For the same compound, the GI50 in the assay on TK-10 is 5.64 µM (inactive).

For `CSCCC(NC(=O)OCc1ccccc1)NC(=O)OCc1ccccc1`, the GI50 was > 100 µM (inactive) with COLO 205; > 100 µM (inactive) in the assay on HCC 2998; above 100 µM with HCT-15; > 10 µM (inactive) with HL-60; > 100 µM (inactive) with HOP-92; > 100 µM (inactive) in the assay with K562. Moreover, the GI50 with M14, in the assay on MOLT-4, with NCI-H226, in the assay with NCI-H460, with OVCAR-3 and in the assay on SK-MEL-2 was > 100 µM (inactive) in each case. The GI50 in the assay with SK-OV-3, with SR, with SW-620 and with TK-10 was > 100 µM (inactive) each time.

For the compound `O=C1OC(c2ccccc2Br)=N/C1=C/c1ccccc1`, the GI50 in the assay on COLO 205 was > 10 µM (inactive); in the assay on HCC 2998, 19.1 µM (inactive); with HCT-15, 29.9 µM; with HL-60, 39 µM (inactive); in the assay with HOP-92 it was > 10 µM (inactive); in the assay on K562 it was 63 µM (inactive). For the same compound, the GI50 was 18.6 µM (inactive) in the assay on M14; 48.8 µM (inactive) in the assay with MOLT-4; 19.6 µM (inactive) in the assay with Malme-3M; 18.8 µM (inactive) in the assay on NCI-H226; 42.5 µM (inactive) in the assay on NCI-H460; 14.1 µM (inactive) in the assay with OVCAR-3. In addition, the GI50 in the assay on SF-268 is 31.6 µM (inactive); with SF-539, 18.5 µM (inactive); in the assay with SK-MEL-2, 18.8 µM (inactive); with SK-OV-3 it was 63.7 µM (inactive); with SR, 27 µM (inactive); in the assay with SW-620, 42.9 µM (inactive). In addition, the GI50 in the assay on TK-10 is 32.8 µM (inactive).

With `CCCc1[nH]c2ccccc2c1-c1c(CCC)[nH]c2ccccc12`, the GI50 is 17.9 µM (inactive) in the assay on COLO 205; 22.9 µM (inactive) in the assay with HCC 2998; 3.62 µM in the assay on HCT-15; 19.5 µM (inactive) with HOP-92; 7.74 µM (inactive) with K562; 12.6 µM (inactive) in the assay with M14. The GI50 is 30.1 µM (inactive) in the assay on MOLT-4; 16 µM (inactive) in the assay with Malme-3M; 19.2 µM (inactive) in the assay on NCI-H226; 23.9 µM (inactive) in the assay with NCI-H460; 8.2 µM (inactive) in the assay with OVCAR-3; 20 µM (inactive) with RXF 393. The GI50 in the assay on SF-268 is 9.62 µM (inactive); with SF-539 it was 8.36 µM (inactive); in the assay on SK-MEL-2, 14.2 µM (inactive); in the assay with SK-OV-3 it was 24.1 µM (inactive); with SR, 19 µM (inactive); in the assay with SW-620, 6.76 µM (inactive). Moreover, the GI50 in the assay on TK-10 is 21.6 µM (inactive).

Consider `CC1C2CC(C(C3C(=O)C4CC3C(C)(C)C4C)C2=O)C1(C)C` (configuration not stated), for which the GI50 with COLO 205, with HCC 2998, in the assay on HL-60, in the assay on HOP-92, with K562 and with M14 was > 100 µM (inactive) in each case. For the same compound, the GI50 with MOLT-4, in the assay on Malme-3M, in the assay with NCI-H226, in the assay on NCI-H460, in the assay on OVCAR-3 and in the assay with RXF 393 was > 100 µM (inactive) throughout. Besides, the GI50 in the assay with SF-268, with SF-539, in the assay with SK-OV-3, in the assay on SR, in the assay on SW-620 and in the assay with TK-10 was > 100 µM (inactive) throughout.

`NC(=O)c1oc([N+](=O)[O-])c(-c2ccccc2)c1-c1ccccc1`: the GI50 in the assay with COLO 205 was 16.8 µM (inactive); with HCT-15, 15.5 µM; with HL-60 it was 25.1 µM (inactive); with HOP-92, 16.1 µM (inactive); in the assay with K562 it was 14.6 µM (inactive); with M14, 17.7 µM (inactive). The GI50 with MOLT-4 is 17.1 µM (inactive); in the assay on Malme-3M, 3.49 µM (inactive); in the assay on NCI-H226, 11 µM (inactive); in the assay with NCI-H460, 26.2 µM (inactive); in the assay on OVCAR-3, 1.24 µM (inactive); with RXF 393 it was 31.6 µM (inactive). Further, the GI50 with SF-268 was 37.6 µM (inactive); in the assay with SF-539, 18.5 µM (inactive); in the assay with SK-MEL-2, 15.6 µM (inactive); in the assay with SK-OV-3, 36.1 µM (inactive); in the assay with SR it was 6.27 µM (inactive); in the assay with SW-620 it was 27 µM (inactive). Further, the GI50 in the assay with TK-10 is 28.6 µM (inactive).

As to `O=C(NS(=O)(=O)OCC(Cl)(Cl)Cl)SCCC(F)(F)C(F)(F)C(F)(F)C(F)(F)C(F)(F)C(F)(F)F`, the GI50 with COLO 205 is 17.9 µM (inactive); in the assay on HCT-15, 20.9 µM; with HL-60, 23.1 µM (inactive); in the assay with HOP-92 it was 10.4 µM (inactive); in the assay with K562, 28.6 µM (inactive); in the assay on M14, 23.1 µM (inactive). Besides, the GI50 in the assay with MOLT-4 was 29 µM (inactive); in the assay on Malme-3M it was 17.9 µM (inactive); with NCI-H226, 25.9 µM (inactive); in the assay on NCI-H460, 19.6 µM (inactive); in the assay with OVCAR-3, 24.9 µM (inactive); with RXF 393, 22.5 µM (inactive). Further, the GI50 in the assay on SF-268 is 40.4 µM (inactive); in the assay with SF-539 it was 16.8 µM (inactive); in the assay with SK-MEL-2 it was 25.3 µM (inactive); in the assay with SK-OV-3, 17.7 µM (inactive); in the assay with SR, 32.7 µM (inactive); in the assay on SW-620, 20.2 µM (inactive). Besides, the GI50 in the assay on TK-10 was 29.5 µM (inactive).
